Experimental data as given in paper PMC10082216 (Nature Communications, 2023).
“And” between values parts separate entries of the source, which are not always exact repeats. Equal values may be shown once. Read-outs that look alike come from different tables or passages of the source.

Assay: TD-6450 phase I clinical study (SAD/MAD): pharmacokinetics
Assay type: in vivo, human
Conditions: for Cmax: read-out: Cmax Mean ± SD; for half-life: read-out: t1/2 Mean ± SD (converted)
Procedure: Primary and secondary outcomes were pre-defined as follows: Safety and tolerability as a primary outcome, pharmacokinetics as a secondary outcome. Safety and tolerability were evaluated using standard measures, including adverse event (AE) monitoring, clinical laboratory tests (hematology, serum chemistry, coagulation, and urinalysis), vital signs, physical examinations, and 12-lead electrocardiograms (ECGs). […]
This study was conducted in two parts, Part A (SAD) and Part B (MAD). For the Part A, the age of enrolled subjects ranged from 20 to 60 years, with a mean age range of 32.1 to 46.2 years. Most subjects were male (73 total subjects) and most were white (55 subjects) or black (22 subjects). For Part B of the study, ages ranged from 23 to 60 years with a similar mean age across treatment groups. Most subjects were male (25 total subjects) and all were either white (18 subjects) or black (12 subjects). For each part of the study, the mean body mass index (BMI) and creatinine clearance were similar across treatment groups. […] Part A: Healthy subjects were sequentially enrolled and randomly assigned to each dose cohort (up to 10 dose-ascending cohorts were planned, including a fed arm in the food effect cohort) to receive either a single dose of TD-6450 or placebo. For each dose cohort, 8 subjects were randomized in a 3:1 ratio (6 subjects received TD-6450 and 2 subjects received placebo). The starting dose of TD-6450 was 0.5 mg with a planned maximum dose of 1000 mg. Upon review of the 500-mg cohort PK data, the decision was made to not escalate to the 1000-mg cohort because of exposure saturation at ≥ 500 mg. The following doses were administered: 0.5 mg, 1.5 mg, 5 mg, 15 mg, 30 mg, 60 mg, 120 mg, 240 mg, and 500 mg. Part B: Healthy subjects were sequentially enrolled in 3 ascending dose cohorts (TD-6450 60 mg, 120 mg, and 240 mg) and randomly assigned to receive either TD-6450 or placebo as once daily doses for 14 days. For each dose cohort, 10 subjects were randomized in a 4:1 ratio (8 subjects received TD-6450 and 2 subjects received placebo). Blinded safety, tolerability, and available PK data after each dose cohort were reviewed by the Safety Data Review Committee (SDRC) before escalation to the next dosing cohort for both part A and B. Subjects of the clinical study were randomly assigned to each cohort. Randomizations codes were assigned to the subjects. All study subjects, study investigators, and the sponsor’s staff involved in the conduct of the study were blinded to treatment assignment. The only personnel who had access to the randomization code before database lock were: The pharmacist or pharmacy staff member who prepared drug or placebo capsules for administration to the subject according to the randomization code and the bioanalytical contract laboratory that analyzed the PK samples (plasma and urine).

[1] = Male subjects, SAD arm NCT02022306, Dose 30.00, 3 Hours
[2] = Male subjects, SAD arm NCT02022306, Dose 30.00, 4 Hours
[3] = Male subjects, SAD arm NCT02022306, Dose 30.00, 72 Hours
[4] = Male subjects, SAD arm NCT02022306, Dose 30.00, 96 Hours
[5] = Male subjects, SAD arm NCT02022306, Dose 30.00, 120 Hours
[6] = Male subjects, SAD arm NCT02022306, Dose 30.00, 144 Hours
[7] = Male subjects, SAD arm NCT02022306, Dose 30.00, 168 Hours
[8] = Male subjects, SAD arm NCT02022306, Dose 30.00, Predose
[9] = both sexes, human, plasma, oral, 1.5 mg, SAD 1.5 mg
[10] = both sexes, human, plasma, oral, 5 mg, SAD 5 mg
[11] = both sexes, human, plasma, oral, 15 mg, SAD 15 mg
[12] = both sexes, human, plasma, oral, 30 mg, SAD 30 mg

CNC(=O)N1C[C@@H](C)N(c2ccc(C(=O)Nc3ccc(-c4ccc(-c5c[nH]c([C@@H]6CCCN6C(=O)[C@@H](NC(=O)OC)C(C)C)n5)cc4)c(OC(F)(F)F)c3)cn2)C[C@@H]1C [TD-6450]
Concentration (Female subjects, SAD arm NCT02022306, Dose 0.50, Predose): 0.00 ng/mL
Concentration (Female subjects, SAD arm NCT02022306, Dose 5.00, Predose): 0.00 ng/mL
Concentration (Female subjects, SAD arm NCT02022306, Dose 15.00, Predose): 0.00 ng/mL
Concentration (Female subjects, SAD arm NCT02022306, Dose 30.00, 3 Hours): 41.80 ng/mL
Concentration (Female subjects, SAD arm NCT02022306, Dose 30.00, 4 Hours): 44.70 ng/mL
Concentration (Female subjects, SAD arm NCT02022306, Dose 30.00, 6 Hours): 43.90 ng/mL
Concentration (Female subjects, SAD arm NCT02022306, Dose 30.00, 8 Hours): 35.40 ng/mL
Concentration (Female subjects, SAD arm NCT02022306, Dose 30.00, 12 Hours): 27.90 ng/mL
Concentration (Female subjects, SAD arm NCT02022306, Dose 30.00, 24 Hours): 20.20 ng/mL
Concentration (Female subjects, SAD arm NCT02022306, Dose 30.00, 48 Hours): 17.50 ng/mL
Concentration (Female subjects, SAD arm NCT02022306, Dose 30.00, 72 Hours): 12.70 ng/mL
Concentration (Female subjects, SAD arm NCT02022306, Dose 30.00, 96 Hours): 9.33 ng/mL
Concentration (Female subjects, SAD arm NCT02022306, Dose 30.00, 120 Hours): 7.89 ng/mL
Concentration (Female subjects, SAD arm NCT02022306, Dose 30.00, 144 Hours): 6.17 ng/mL
Concentration (Female subjects, SAD arm NCT02022306, Dose 30.00, 168 Hours): 4.12 ng/mL
Concentration (Female subjects, SAD arm NCT02022306, Dose 30.00, Predose): 0.00 ng/mL
Concentration (Female subjects, SAD arm NCT02022306, Dose 60.00, Predose): 0.00 ng/mL
Concentration (Male subjects, SAD arm NCT02022306, Dose 0.50, Predose): 0.00 ng/mL
Concentration (Male subjects, SAD arm NCT02022306, Dose 1.50, Predose): 0.00 ng/mL
Concentration (Male subjects, SAD arm NCT02022306, Dose 5.00, Predose): 0.00 ng/mL
Concentration (Male subjects, SAD arm NCT02022306, Dose 15.00, Predose): 0.00 ng/mL
Concentration [1]: 16.10 ng/mL
Concentration (ng/ml) [1]: 14.80 ng/mL
Concentration [2]: 17.80 ng/mL
Concentration (ng/ml) [2]: 18.90 ng/mL
Concentration (Male subjects, SAD arm NCT02022306, Dose 30.00, 6 Hours): 21.60 ng/mL
Concentration (Male subjects, SAD arm NCT02022306, Dose 30.00, 8 Hours): 20.90 ng/mL
Concentration (Male subjects, SAD arm NCT02022306, Dose 30.00, 12 Hours): 16.40 ng/mL
Concentration (Male subjects, SAD arm NCT02022306, Dose 30.00, 24 Hours): 12.70 ng/mL
Concentration (Male subjects, SAD arm NCT02022306, Dose 30.00, 48 Hours): 9.02 ng/mL
Concentration [3]: 7.45 ng/mL
Concentration (ng/ml) [3]: 9.39 ng/mL
Concentration [4]: 6.04 ng/mL
Concentration (ng/ml) [4]: 7.13 ng/mL
Concentration [5]: 4.98 ng/mL
Concentration (ng/ml) [5]: 5.80 ng/mL
Concentration [6]: 3.71 ng/mL
Concentration (ng/ml) [6]: 4.24 ng/mL
Concentration [7]: 3.30 ng/mL
Concentration (ng/ml) [7]: 3.28 ng/mL
Concentration [8]: 0.00 ng/mL
Concentration (ng/ml) [8]: 0.00 ng/mL
Concentration (ng/ml) (Male subjects, SAD arm NCT02022306, Dose 60.00, 8 Hours): 61.90 ng/mL and 92.80 ng/mL and 97.50 ng/mL and 65.40 ng/mL
Concentration (ng/ml) (Male subjects, SAD arm NCT02022306, Dose 60.00, Predose): 0.00 ng/mL
Concentration (ng/ml) (Male subjects, SAD arm NCT02022306, Dose 120.00, Predose): 0.00 ng/mL
Concentration (ng/ml) (Male subjects, SAD arm NCT02022306, Dose 240.00, Predose): 0.00 ng/mL
Concentration (ng/ml) (Male subjects, SAD arm NCT02022306, Dose 500.00, 30 Minutes): 2.54 ng/mL and 3.61 ng/mL and 2.21 ng/mL
Concentration (ng/ml) (Male subjects, SAD arm NCT02022306, Dose 500.00, Predose): 0.00 ng/mL
Cmax (both sexes, human, plasma, oral, 0.5 mg, SAD 0.5 mg): 0.5 ± 0.1 nM
Cmax [9]: 1.5 ± 0.4 nM
half-life [9]: 3.51 days
Cmax [10]: 5.37 ± 1.8 nM
half-life [10]: 2.99 ± 0.217 days
Cmax [11]: 21 ± 7.9 nM
half-life [11]: 3.21 ± 0.592 days
Cmax [12]: 37.4 ± 19 nM
half-life [12]: 2.79 ± 0.375 days
Cmax at 1 day (both sexes, human, plasma, oral, 60 mg, MAD 60 mg, day 1, read-out: Cmax Mean ± SD, D1): 97.4 nM
Cmax at 14 day (both sexes, human, plasma, oral, 60 mg, MAD 60 mg, day 14, read-out: Cmax Mean ± SD, D14): 398 ± 146 nM
half-life at 14 day (both sexes, human, plasma, oral, 60 mg, MAD 60 mg, day 14, read-out: t1/2 Mean ± SD, D14 (converted)): 2.6 ± 0.417 days
